Measured values as given in PMC10607100, “Anticancer and Antiphytopathogenic Activity of Fluorinated Isatins and Their Water-Soluble Hydrazone Derivatives” (International Journal of Molecular Sciences, 2023).
Read-outs that look alike come from different tables or passages of the source.

Legend:
Format in all cases: cell-based
[1] = test system: Phytophthora cactorum VKM F-985; experiment: Mycelial radial growth inhibition; conditions: Phytophthora cactorum; for inhibition of growth at 3 µM: 3 nmol/mL; for inhibition of growth at 3 µM / inhibition of growth at 7 µM / inhibition of growth at 20 µM / inhibition of growth / inhibition of growth at 40 µM: read-out: Inhibition value, I (%); for inhibition of growth at 7 µM: 7 nmol/mL; for inhibition of growth at 20 µM: 20 nmol/mL; for inhibition of growth: 27 nmol/mL; for inhibition of growth at 40 µM: 40 nmol/mL
Source text: (§1) Plant pathogenic bacterial strains Micrococcus luteus B-109, Pectobacterium atrosepticum 1043, Pectobacterium carotovorum subsp. carotovorum MI, Pseudomonas fluorescens EL-2.1, and Xanthomonas campestris B-610 and the fungal strain Fusarium oxysporum IBPPM 543 were from the Collection of Rhizosphere Microorganisms, IBPPM RAS (WFCC no. 975, WDCM no. 1021) (CM IBPPM, http://collection.ibppm.ru). The pathogenic fungus Phytophthora cactorum VKM F-985, provided by the All-Russian Collection of Microorganisms (VKM) and deposited at the A.E. Favorsky Irkutsk Institute of Chemistry, SB RAS, was also used as a test organism. Bacteria M. luteus, P. carotovorum subsp. carotovorum, P. atrosepticum, and P. fluorescens were grown in a meat–peptone medium (BP), and X. campestris was grown in the medium with glucose, yeast extract, and calcium carbonate (GYCa). Solid media contained Bacto agar (18 g/L); pH was adjusted to 7.2–7.4. All bacterial cultures were grown at 28 °C. The mycelial cultures of F. oxysporum and P. cactorum were grown on a glucose–peptone–yeast (GPY) nutrient medium at 27 °C. For inoculum preparation, both fungal strains were initially grown on the agar GPY in Petri dishes and then transferred into the seed medium by punching out 5 mm of the agar plate culture with a self-designed cutter.
(§2) For the fungicidal activity analysis, radial growth (colony diameters) of the fungi on a solid medium in the absence and in the presence of the compounds 5a–e and 7a–c solutions at various concentrations were compared. The method consisted of the following: A sterile GPY agar medium (20.0 mL), which was melted and then allowed to cool to approximately 60 °C, was mixed with the precisely measured volumes of the solutions under question and poured into a sterile Petri dish (90 mm i.d.). After the solidification of GPY agar, the media were inoculated by the fungus using 10-day-old cultures of F. oxysporum or P. cactorum. The inoculation was conducted by transferring a 5-mm (i.d.) GPY-agar block covered with mycelium to the center of the Petri dish, followed by incubation in a thermostat at 27 °C. The fungicidal effect was scored by the size of the mycelium colony on a Petri dish compared to the control without fungicidal admixtures to GPY agar. Each treatment was performed in at least four replicates in two independent experiments. The observation period ended when the control Petri dish was filled with mycelium (usually after 12 days). […] The solutions of the compounds were prepared with a concentration of 2 mmol/L (stock solution). For comparison, test compounds were also commonly applied as disinfecting agents, and antibiotics were used as a positive control.

[2] = test system: Fusarium oxysporum IBPPM 543; experiment: Mycelial radial growth inhibition; conditions: Fusarium oxysporum; for inhibition of growth at 1 µM: 1 nmol/mL; for inhibition of growth at 1 µM / inhibition of growth at 5 µM / inhibition of growth at 30 µM / inhibition of growth at 40 µM: read-out: Inhibition value, I (%); for inhibition of growth at 5 µM: 5 nmol/mL; for inhibition of growth at 30 µM: 30 nmol/mL; for inhibition of growth at 40 µM: 40 nmol/mL
Source text: as §1, §2

[3] = test system: Xanthomonas campestris B-610; experiment: Agar-well diffusion, bactericidal activity; conditions: Xanthomonas campestris
Description: Bacteria M. luteus, P. carotovorum subsp. carotovorum, P. atrosepticum, and P. fluorescens were grown in a meat–peptone medium (BP), and X. campestris was grown in the medium with glucose, yeast extract, and calcium carbonate (GYCa). Solid media contained Bacto agar (18 g/L); pH was adjusted to 7.2–7.4. […] For inoculum preparation, both fungal strains were initially grown on the agar GPY in Petri dishes and then transferred into the seed medium by punching out 5 mm of the agar plate culture with a self-designed cutter.
(§3) The antibacterial and antifungal activities of the compounds were explored using the agar-well diffusion method and the technique of mycelial radial growth inhibition. The method of diffusion in agar (measuring the diameter of growth inhibition zones) was used to determine the bactericidal activity. The 6-mm wells were made in agar medium (GYCa for Xanthomonas campestris or BP for other bacteria). Bacterial suspensions were distributed over the agar surface, and the tested compound’s solution (150 μL) was added to each well. The width of growth inhibition zones around the wells was determined after incubation for 36–40 h.

[4] = test system: five representative phytopathogens; experiment: Agar-well diffusion, bactericidal activity over the panel of phytopathogens
Source text: as §1, §3

[5] = test system: Pectobacterium carotovorum subsp. carotovorum MI; experiment: Agar-well diffusion, bactericidal activity; conditions: Pectobacterium carotovorum, 2 mM/L
Source text: as §1, §3

[6] = test system: Pseudomonas fluorescens EL-2.1; experiment: Agar-well diffusion, bactericidal activity; conditions: Pseudomonas fluorescens, EL2.1, 2 mM/L
Source text: as §1, §3

[7] = test system: Pectobacterium atrosepticum 1043; experiment: Agar-well diffusion, bactericidal activity; conditions: Pectobacterium atrosepticum, 1043, 2 mM/L
Source text: as §1, §3

Micrococcus luteus B-109 = experiment: Agar-well diffusion, bactericidal activity; conditions: Micrococcus luteus
Source text: as §1, §3

[8] = 120 h, age of the fungus 5 days
[9] = 168 h, age of the fungus 7 days
[10] = 216 h, age of the fungus 9 days
[11] = IBPPM543, 72 h, age of the fungus 3 days
[12] = IBPPM543, 120 h, age of the fungus 5 days
[13] = IBPPM543, 168 h, age of the fungus 7 days
[14] = IBPPM543, 216 h, age of the fungus 9 days
[15] = Table S3, read-out: Inhibition zone width (mm), not less

Question: How did the inhibition of growth at 3 µM ([1]; 72 h, age of the fungus 3 days) turn out when `Cc1ccc[n+](CC(=O)N/N=C2\C(=O)N(Cc3ccccc3F)c3ccccc32)c1C` [Compound 7a] was run?
Answer: Its inhibition of growth at 3 µM is 5%.

Question: And the inhibition of growth at 7 µM ([1]; 72 h, age of the fungus 3 days)?
Answer: The inhibition of growth at 7 µM was 17%.

Question: What about the inhibition of growth at 20 µM ([1]; 72 h, age of the fungus 3 days) of the same compound?
Answer: The inhibition of growth at 20 µM was 21%.

Question: And the inhibition of growth ([1]; 72 h, age of the fungus 3 days)?
Answer: The inhibition of growth was 27%.

Question: And the inhibition of growth at 40 µM ([1]; 72 h, age of the fungus 3 days)?
Answer: Its inhibition of growth at 40 µM is 42%.

Question: What about the EC50 ([1]; 120 h, day 5, read-out: EC50, µg/mL at Day 5, P. cactorum) of the same compound?
Answer: Its EC50 is 22.9 µg/mL.

Question: And the inhibition of growth at 3 µM [1, 8]?
Answer: Its inhibition of growth at 3 µM is 12%.

Question: What about the inhibition of growth at 7 µM [1, 8] of the same compound?
Answer: The inhibition of growth at 7 µM was 21%.

Question: What about the inhibition of growth at 20 µM [1, 8] of the same compound?
Answer: The inhibition of growth at 20 µM was 25%.

Question: And the inhibition of growth [1, 8]?
Answer: The inhibition of growth was 29%.

Question: And the inhibition of growth at 40 µM [1, 8]?
Answer: Its inhibition of growth at 40 µM is 45%.

Question: What about the inhibition of growth at 3 µM [1, 9] of the same compound?
Answer: The inhibition of growth at 3 µM was 4%.

Question: What about the inhibition of growth at 7 µM [1, 9] of the same compound?
Answer: Its inhibition of growth at 7 µM is 10%.

Question: What about the inhibition of growth at 20 µM [1, 9] of the same compound?
Answer: The inhibition of growth at 20 µM was 16%.

Question: What about the inhibition of growth [1, 9] of the same compound?
Answer: Its inhibition of growth is 20%.

Question: What about the inhibition of growth at 40 µM [1, 9] of the same compound?
Answer: Its inhibition of growth at 40 µM is 38%.

Question: What about the inhibition of growth at 3 µM [1, 10] of the same compound?
Answer: The inhibition of growth at 3 µM was 4%.

Question: And the inhibition of growth at 7 µM [1, 10]?
Answer: The inhibition of growth at 7 µM was 6%.

Question: What about the inhibition of growth at 20 µM [1, 10] of the same compound?
Answer: Its inhibition of growth at 20 µM is 13%.

Question: And the inhibition of growth [1, 10]?
Answer: The inhibition of growth was 16%.

Question: What about the inhibition of growth at 40 µM [1, 10] of the same compound?
Answer: Its inhibition of growth at 40 µM is 37%.

Question: And the inhibition of growth at 1 µM [2, 11]?
Answer: The inhibition of growth at 1 µM was 9%.

Question: And the inhibition of growth at 5 µM [2, 11]?
Answer: Its inhibition of growth at 5 µM is 43%.

Question: And the inhibition of growth at 30 µM [2, 11]?
Answer: The inhibition of growth at 30 µM was 51%.

Question: What about the inhibition of growth at 40 µM [2, 11] of the same compound?
Answer: The inhibition of growth at 40 µM was 61%.

Question: And the EC50 ([2]; IBPPM543, 120 h, day 5, read-out: EC50, µg/mL at Day 5, F. oxysporum)?
Answer: The EC50 was 7.25 µg/mL.

Question: What about the inhibition of growth at 1 µM [2, 12] of the same compound?
Answer: Its inhibition of growth at 1 µM is 4%.

Question: And the inhibition of growth at 5 µM [2, 12]?
Answer: Its inhibition of growth at 5 µM is 44%.

Question: What about the inhibition of growth at 30 µM [2, 12] of the same compound?
Answer: Its inhibition of growth at 30 µM is 59%.

Question: What about the inhibition of growth at 40 µM [2, 12] of the same compound?
Answer: The inhibition of growth at 40 µM was 65%.

Question: And the inhibition of growth at 1 µM [2, 13]?
Answer: The inhibition of growth at 1 µM was 8%.

Question: What about the inhibition of growth at 5 µM [2, 13] of the same compound?
Answer: The inhibition of growth at 5 µM was 41%.

Question: What about the inhibition of growth at 30 µM [2, 13] of the same compound?
Answer: The inhibition of growth at 30 µM was 56%.

Question: And the inhibition of growth at 40 µM [2, 13]?
Answer: Its inhibition of growth at 40 µM is 69%.

Question: What about the inhibition of growth at 1 µM [2, 14] of the same compound?
Answer: The inhibition of growth at 1 µM was 0%.

Question: What about the inhibition of growth at 5 µM [2, 14] of the same compound?
Answer: The inhibition of growth at 5 µM was 33%.

Question: What about the inhibition of growth at 30 µM [2, 14] of the same compound?
Answer: The inhibition of growth at 30 µM was 55%.

Question: What about the inhibition of growth at 40 µM [2, 14] of the same compound?
Answer: Its inhibition of growth at 40 µM is 64%.

Question: And the zone of inhibition at 2000 µM ([3]; B610, 2 mM/L, average of 3 experiments, read-out: width of the inhibition zone (mm), X. campestris)?
Answer: The zone of inhibition at 2000 µM was 5 mm.

Question: What about the zone of inhibition at 2000 µM ([3]; B610, Table S3, 2 mM/L, read-out: Inhibition zone width (mm), not less) of the same compound?
Answer: Its zone of inhibition at 2000 µM is ≥ 5 mm.

Question: And the zone of inhibition at 2000 µM ([4]; 36 h, 2 mM solutions, dependent on the test system used, read-out: inhibition zone width (mm), range over the test systems)?
Answer: Its zone of inhibition at 2000 µM is 2 to 6 mm.

Question: What about the “bactericidal activity” value ([4]; Table S2) of the same compound?
Answer: The value was “moderate bactericidal activity”.

Question: What about the inhibition zone ([4]; against P. carotovorum subsp. carotovorum MI, Ps. fluorescens EL-2.1 and X. campestris B-610) of the same compound?
Answer: The inhibition zone was 5–6 mm.

Question: What about the zone of inhibition at 2000 µM ([5]; average of 3 experiments, read-out: width of the inhibition zone (mm), P. carotovorum subsp. carotovorum) of the same compound?
Answer: Its zone of inhibition at 2000 µM is 6 mm.

Question: And the zone of inhibition at 2000 µM [5, 15]?
Answer: The zone of inhibition at 2000 µM was ≥ 6 mm.

Question: What about the zone of inhibition at 2000 µM ([6]; average of 3 experiments, read-out: width of the inhibition zone (mm), Ps. fluorescens) of the same compound?
Answer: Its zone of inhibition at 2000 µM is 5 mm.

Question: What about the zone of inhibition at 2000 µM [6, 15] of the same compound?
Answer: The zone of inhibition at 2000 µM was ≥ 5 mm.

Question: What about the zone of inhibition at 2000 µM ([7]; average of 3 experiments, read-out: width of the inhibition zone (mm), P. atrosepticum) of the same compound?
Answer: Its zone of inhibition at 2000 µM is 3 mm.

Question: And the zone of inhibition at 2000 µM [7, 15]?
Answer: The zone of inhibition at 2000 µM was ≥ 3 mm.

Question: And the zone of inhibition at 2000 µM (Micrococcus luteus B-109; B109, 2 mM/L, average of 3 experiments, read-out: width of the inhibition zone (mm), M. luteus)?
Answer: The zone of inhibition at 2000 µM was 2 mm.

Question: What about the zone of inhibition at 2000 µM (Micrococcus luteus B-109; B109, Table S3, 2 mM/L, read-out: Inhibition zone width (mm), not less) of the same compound?
Answer: The zone of inhibition at 2000 µM was ≥ 2 mm.
